Measurements from PubChem BioAssay (NCI).
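Following 48 hours of exposure in 96-well plates, responses at five concentrations were used to interpolate endpoints linearly. GI50 is the concentration that inhibits growth by half. TGI: concentration producing complete growth inhibition.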

How the values were obtained:
Test in all cases: NCI anticancer screen, dose series, 48 h
CAKI-1 renal = test system: CAKI-1 renal
EKVX NSCLC = test system: EKVX NSCLC
HL-60(TB) leukemia = test system: HL-60(TB) leukemia
MALME-3M melanoma = test system: MALME-3M melanoma
NCI-H226 lung = test system: NCI-H226 lung
OVCAR-3 ovarian = test system: OVCAR-3 ovarian
SK-MEL-2 melanoma = test system: SK-MEL-2 melanoma
HS 578T breast = test system: HS 578T breast
T-47D breast = test system: T-47D breast
BT-549 breast = test system: BT-549 breast

`CCOC(=O)C1=C(C)N(C2OC(COC(C)=O)C(OC(C)=O)C(OC(C)=O)C2OC(C)=O)C(=O)NC1c1ccccc1` (stereo unspecified) gave a TGI (CAKI-1 renal) greater than 100 µM, a TGI (EKVX NSCLC) greater than 100 µM and a TGI (HL-60(TB) leukemia) greater than 100 µM. For the same compound, the TGI (MALME-3M melanoma) was greater than 100 µM, the TGI (NCI-H226 lung) was greater than 100 µM and the TGI (OVCAR-3 ovarian) was greater than 100 µM. It also gave a TGI (SK-MEL-2 melanoma) greater than 100 µM.
Work on `CSS(C)(=O)=O` yielded a TGI (CAKI-1 renal) of 43.2 µM, a TGI (EKVX NSCLC) of 66.2 µM and a TGI (HL-60(TB) leukemia) of 58.7 µM. The TGI (HS 578T breast) was greater than 100 µM, the TGI (MALME-3M melanoma) was 48.4 µM and the TGI (NCI-H226 lung) was 43.5 µM. It also gave a TGI (OVCAR-3 ovarian) of 41.6 µM, a TGI (SK-MEL-2 melanoma) of 60.2 µM and a TGI (T-47D breast) of 57.2 µM.
Compound `CCCCCCC(=O)c1ccc2ccccc2c1O` has a TGI (BT-549 breast) greater than 100 µM, a TGI (CAKI-1 renal) of 95.4 µM and a TGI (EKVX NSCLC) greater than 100 µM. It also gave a TGI (HL-60(TB) leukemia) greater than 100 µM, a TGI (HS 578T breast) greater than 100 µM and a TGI (NCI-H226 lung) greater than 100 µM. It also gave a TGI (SK-MEL-2 melanoma) of 67.5 µM and a TGI (T-47D breast) greater than 100 µM.
`COc1ccc(-c2c3c(nc4[nH]c(=S)[nH]c(=S)c24)CCCC3)cc1OC` showed a TGI (BT-549 breast) greater than 100 µM, a TGI (CAKI-1 renal) greater than 100 µM and a TGI (EKVX NSCLC) of 76.9 µM. For the same compound, the TGI (HL-60(TB) leukemia) was greater than 100 µM, the TGI (HS 578T breast) was 54.4 µM and the TGI (MALME-3M melanoma) was greater than 100 µM. For the same compound, the TGI (OVCAR-3 ovarian) was greater than 100 µM and the TGI (T-47D breast) was greater than 100 µM.
Work on `CCCCn1c(C)c2c(c1C)C(=O)N(CCN1CCN(c3ccccc3Cl)CC1)C2=O` yielded a TGI (BT-549 breast) of 41.7 µM, a TGI (CAKI-1 renal) greater than 100 µM and a TGI (EKVX NSCLC) greater than 100 µM. For the same compound, the TGI (HL-60(TB) leukemia) was 51 µM, the TGI (HS 578T breast) was greater than 100 µM and the TGI (MALME-3M melanoma) was 50.2 µM. It also gave a TGI (NCI-H226 lung) greater than 100 µM, a TGI (OVCAR-3 ovarian) greater than 100 µM and a TGI (SK-MEL-2 melanoma) of 49 µM. The TGI (T-47D breast) was 75 µM.
With `CCOC(=O)/C=C/c1c[nH]c(=O)[nH]c1=O` the TGI (CAKI-1 renal) was greater than 75 µM, the TGI (EKVX NSCLC) was greater than 75 µM and the TGI (HL-60(TB) leukemia) was greater than 75 µM. The TGI (MALME-3M melanoma) was greater than 75 µM, the TGI (NCI-H226 lung) was greater than 75 µM and the TGI (OVCAR-3 ovarian) was greater than 75 µM. The TGI (SK-MEL-2 melanoma) was greater than 75 µM.
`c1ccc(N2N=C3N(c4ccccc4)C2N3c2ccccc2)cc1` gave a TGI (BT-549 breast) greater than 100 µM, a TGI (CAKI-1 renal) greater than 100 µM and a TGI (EKVX NSCLC) greater than 100 µM. It also gave a TGI (HL-60(TB) leukemia) greater than 100 µM, a TGI (HS 578T breast) greater than 100 µM and a TGI (MALME-3M melanoma) of 38.2 µM. For the same compound, the TGI (OVCAR-3 ovarian) was greater than 100 µM, the TGI (SK-MEL-2 melanoma) was 73 µM and the TGI (T-47D breast) was greater than 100 µM.
With `C=CCOC1OC(CS(=O)(=O)O)C(OC(C)=O)C(OC(C)=O)C1OC(C)=O` (stereo unspecified) the TGI (BT-549 breast) was greater than 100 µM, the TGI (CAKI-1 renal) was greater than 100 µM and the TGI (HL-60(TB) leukemia) was greater than 100 µM. It also gave a TGI (HS 578T breast) greater than 100 µM, a TGI (MALME-3M melanoma) greater than 100 µM and a TGI (NCI-H226 lung) greater than 100 µM. The TGI (OVCAR-3 ovarian) was greater than 100 µM, the TGI (SK-MEL-2 melanoma) was greater than 100 µM and the TGI (T-47D breast) was greater than 100 µM.
`CC(=O)OCc1nnn2c1CCC2` gave a TGI (EKVX NSCLC) greater than 100 µM, a TGI (HL-60(TB) leukemia) greater than 100 µM and a TGI (MALME-3M melanoma) greater than 100 µM. For the same compound, the TGI (OVCAR-3 ovarian) was greater than 100 µM and the TGI (SK-MEL-2 melanoma) was greater than 100 µM.
Work on `CCCCCCCCCC[N+](C)(C)C` yielded a GI50 (CAKI-1 renal) of 2.52 µM, a TGI (CAKI-1 renal) of 15.3 µM and a GI50 (EKVX NSCLC) of 3.66 µM. The TGI (EKVX NSCLC) was 30.5 µM, the GI50 (HL-60(TB) leukemia) was 0.874 µM and the TGI (HL-60(TB) leukemia) was 2.59 µM. The GI50 (HS 578T breast) was 2.22 µM, the TGI (HS 578T breast) was 6.38 µM and the GI50 (MALME-3M melanoma) was 2.25 µM. It also gave a TGI (MALME-3M melanoma) of 8.96 µM, a GI50 (NCI-H226 lung) of 2.37 µM and a TGI (NCI-H226 lung) of 8.97 µM. The GI50 (OVCAR-3 ovarian) was 1.68 µM, the TGI (OVCAR-3 ovarian) was 5.4 µM and the GI50 (SK-MEL-2 melanoma) was 2.41 µM. The TGI (SK-MEL-2 melanoma) was 6.61 µM, the GI50 (T-47D breast) was 1.91 µM and the TGI (T-47D breast) was 8.33 µM.
In the case of `COc1c2occc2cc2ccc(=O)oc12`, the TGI (BT-549 breast) was greater than 100 µM, the TGI (CAKI-1 renal) was greater than 100 µM and the GI50 (EKVX NSCLC) was 96.9 µM. For the same compound, the TGI (EKVX NSCLC) was greater than 100 µM, the TGI (HL-60(TB) leukemia) was greater than 100 µM and the GI50 (HS 578T breast) was greater than 100 µM. For the same compound, the TGI (HS 578T breast) was greater than 100 µM, the GI50 (MALME-3M melanoma) was greater than 100 µM and the TGI (MALME-3M melanoma) was greater than 100 µM. The GI50 (NCI-H226 lung) was greater than 100 µM, the TGI (NCI-H226 lung) was greater than 100 µM and the TGI (OVCAR-3 ovarian) was greater than 100 µM. It also gave a TGI (SK-MEL-2 melanoma) greater than 100 µM and a TGI (T-47D breast) greater than 100 µM.
Compound `COc1ccc(OCC(C)(C)O)cc1` has a TGI (CAKI-1 renal) greater than 100 µM, a TGI (EKVX NSCLC) greater than 100 µM and a TGI (HL-60(TB) leukemia) greater than 100 µM. The TGI (MALME-3M melanoma) was greater than 100 µM, the TGI (NCI-H226 lung) was greater than 100 µM and the TGI (OVCAR-3 ovarian) was greater than 100 µM. It also gave a TGI (SK-MEL-2 melanoma) greater than 100 µM.
